# Data reported in PubChem BioAssay AID212 (DTP/NCI, 2004).
# Several values for one entry are separate records, joined by “and”; a condition that tells them apart may be missing. Equal entries are not always repeated. Records with an inconclusive call do not appear.
# Tested on: BDF1 mice, colon carcinoma 38 sc, T/C %
# Experiment: NCI In Vivo Anticancer Drug Screen. Data for tumor model Colon Carcinoma 38 (subcutaneous) in B6D2F1 (BDF1) mice
# Method in brief: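 Compound antitumor activity was assessed in mice carrying transplantable tumors. Survival or tumor size was recorded, and each value is the treated-group measurement divided by that of the vehicle-treated control group.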
# [1] = endpoint: median tumor weight (est.), dose: 12.5 mg/kg/injection, schedule: Q07DX002 (ip), vehicle: saline, higher = larger tumour
# [2] = endpoint: median tumor weight (est.), dose: 25.0 mg/kg/injection, schedule: Q07DX002 (ip), vehicle: saline, higher = larger tumour
# [3] = endpoint: median tumor weight (est.), dose: 50.0 mg/kg/injection, schedule: Q07DX002 (ip), vehicle: saline, higher = larger tumour
# [4] = endpoint: median tumor weight (est.), dose: 6.25 mg/kg/injection, schedule: Q07DX002 (ip), vehicle: saline, higher = larger tumour
smiles,measurement,setting,value
C/C=C\C1OC1(C)c1cc(=O)c2c(C)cc3c(c2o1)C(=O)c1c(O)c(C2CC(C)(N(C)C)C(OC(C)=O)C(C)O2)cc(C2CC(N(C)C)C(O)C(C)O2)c1C3=O (centres undefined),T/C,"endpoint: median tumor weight (est.), dose: 0.38 mg/kg/injection, schedule: Q07DX002 (ip), vehicle: saline + alcohol, higher = larger tumour",119 % of control
same,T/C,"endpoint: median tumor weight (est.), dose: 0.75 mg/kg/injection, schedule: Q07DX002 (ip), vehicle: saline + alcohol, higher = larger tumour",85 % of control
same,T/C,"endpoint: median tumor weight (est.), dose: 3.0 mg/kg/injection, schedule: Q07DX002 (ip), vehicle: saline + alcohol, higher = larger tumour",58 % of control
same,T/C,"endpoint: median tumor weight (est.), dose: 6.0 mg/kg/injection, schedule: Q07DX002 (ip), vehicle: saline + alcohol, higher = larger tumour",53 % of control
CC1(C)OC(=O)N(CO)C1=O,T/C,[1],162 % of control
same,T/C,[2],94 % of control
same,T/C,[3],120 % of control and 123 % of control
same,T/C,"endpoint: median tumor weight (est.), dose: 400.0 mg/kg/injection, schedule: Q07DX002 (ip), vehicle: saline, higher = larger tumour",257 % of control
CCNC(=O)OCc1c(COC(=O)NCC)c(-c2ccc(Cl)c(Cl)c2)n2c1CCC2,T/C,"endpoint: median tumor weight (est.), dose: 3.12 mg/kg/injection, schedule: Q07DX002 (ip), vehicle: saline, higher = larger tumour",74 % of control
same,T/C,[4],104 % of control
same,T/C,[1],86 % of control
same,T/C,[2],62 % of control
same,T/C,[3],42 % of control
CC[C@@]1(O)C[C@H](OC2CC(N(C)C)C(OC3CC(O)C(OC4CCC(=O)C(C)O4)C(C)O3)C(C)O2)c2c(cc3c(c2O)C(=O)c2c(O)cccc2C3=O)[C@H]1C(=O)OC (some centres undefined),T/C,"endpoint: median survival time, dose: 5.3 mg/kg/injection, schedule: Q07DX002 (iv), vehicle: water, higher = longer survival",114 % of control
same,T/C,"endpoint: median survival time, dose: 8.3 mg/kg/injection, schedule: Q07DX002 (iv), vehicle: water, higher = longer survival",105 % of control
same,T/C,"endpoint: median survival time, dose: 20.0 mg/kg/injection, schedule: Q07DX002 (iv), vehicle: water, higher = longer survival",115 % of control
same,T/C,"endpoint: median tumor weight (est.), dose: 0.75 mg/kg/injection, schedule: Q07DX002 (ip), vehicle: water, higher = larger tumour",67 % of control
same,T/C,"endpoint: median tumor weight (est.), dose: 0.75 mg/kg/injection, schedule: Q07DX003 (ip), vehicle: water, higher = larger tumour",98 % of control
same,T/C,"endpoint: median tumor weight (est.), dose: 1.5 mg/kg/injection, schedule: Q07DX003 (ip), vehicle: water, higher = larger tumour",123 % of control
same,T/C,"endpoint: median tumor weight (est.), dose: 3.0 mg/kg/injection, schedule: Q07DX003 (ip), vehicle: water, higher = larger tumour",103 % of control
same,T/C,"endpoint: median tumor weight (est.), dose: 6.0 mg/kg/injection, schedule: Q07DX003 (ip), vehicle: water, higher = larger tumour",75 % of control
same,T/C,"endpoint: median tumor weight (est.), dose: 12.0 mg/kg/injection, schedule: Q07DX003 (ip), vehicle: water, higher = larger tumour",40 % of control
COc1cccc2c1C(=O)c1c(O)c3c(c(O)c1C2=O)CC(O)(/C(C)=N/NC(=O)CCC(=O)N/N=C(\C)C1(O)Cc2c(O)c4c(c(O)c2C(OC2CC(N)C(O)C(C)O2)C1)C(=O)c1c(OC)cccc1C4=O)CC3OC1CC(N)C(O)C(C)O1 (centres undefined),T/C,"endpoint: median survival time, dose: 28.0 mg/kg/injection, schedule: Q07DX003 (sc), vehicle: water, higher = longer survival",107 % of control
same,T/C,"endpoint: median survival time, dose: 73.0 mg/kg/injection, schedule: Q07DX003 (sc), vehicle: water, higher = longer survival",100 % of control
same,T/C,"endpoint: median survival time, dose: 118.0 mg/kg/injection, schedule: Q07DX003 (sc), vehicle: water, higher = longer survival",175 % of control
same,T/C,"endpoint: median tumor weight (est.), dose: 4.0 mg/kg/injection, schedule: Q07DX002 (ip), vehicle: distilled water + Tween-80, higher = larger tumour",97 % of control
same,T/C,"endpoint: median tumor weight (est.), dose: 8.0 mg/kg/injection, schedule: Q07DX002 (ip), vehicle: distilled water + Tween-80, higher = larger tumour",90 % of control
same,T/C,"endpoint: median tumor weight (est.), dose: 8.0 mg/kg/injection, schedule: Q07DX002 (ip), vehicle: water, higher = larger tumour",104 % of control
same,T/C,"endpoint: median tumor weight (est.), dose: 9.48 mg/kg/injection, schedule: Q07DX002 (ip), vehicle: water, higher = larger tumour",9 % of control
same,T/C,"endpoint: median tumor weight (est.), dose: 14.2 mg/kg/injection, schedule: Q07DX002 (ip), vehicle: water, higher = larger tumour",2 % of control
same,T/C,"endpoint: median tumor weight (est.), dose: 16.0 mg/kg/injection, schedule: Q07DX002 (ip), vehicle: distilled water + Tween-80, higher = larger tumour",69 % of control
same,T/C,"endpoint: median tumor weight (est.), dose: 16.0 mg/kg/injection, schedule: Q07DX002 (ip), vehicle: water, higher = larger tumour",90 % of control
same,T/C,"endpoint: median tumor weight (est.), dose: 32.0 mg/kg/injection, schedule: Q07DX002 (ip), vehicle: distilled water + Tween-80, higher = larger tumour",59 % of control
same,T/C,"endpoint: median tumor weight (est.), dose: 32.0 mg/kg/injection, schedule: Q07DX002 (ip), vehicle: water, higher = larger tumour",54 % of control
same,T/C,"endpoint: median tumor weight (est.), dose: 64.0 mg/kg/injection, schedule: Q07DX002 (ip), vehicle: distilled water + Tween-80, higher = larger tumour",4 % of control
ClCCCN1CCN(CCCCl)CC1,T/C,"endpoint: median tumor weight (est.), dose: 12.5 mg/kg/injection, schedule: Q07DX002 (ip), vehicle: distilled water + alcohol, higher = larger tumour",94 % of control
same,T/C,"endpoint: median tumor weight (est.), dose: 25.0 mg/kg/injection, schedule: Q07DX002 (ip), vehicle: distilled water + alcohol, higher = larger tumour",154 % of control
same,T/C,"endpoint: median tumor weight (est.), dose: 50.0 mg/kg/injection, schedule: Q07DX002 (ip), vehicle: distilled water + alcohol, higher = larger tumour",153 % of control and 207 % of control
same,T/C,"endpoint: median tumor weight (est.), dose: 100.0 mg/kg/injection, schedule: Q07DX002 (ip), vehicle: distilled water + alcohol, higher = larger tumour",39 % of control and 50 % of control
same,T/C,"endpoint: median tumor weight (est.), dose: 200.0 mg/kg/injection, schedule: Q07DX002 (ip), vehicle: distilled water + alcohol, higher = larger tumour",63 % of control
CC1(C)N=C(N)N=C(N)N1c1ccc(F)c(C(F)(F)F)c1,T/C,"endpoint: median tumor weight (est.), dose: 1.56 mg/kg/injection, schedule: Q07DX002 (ip), vehicle: saline, higher = larger tumour",87 % of control
same,T/C,[4],81 % of control and 84 % of control
same,T/C,[1],50 % of control and 64 % of control
same,T/C,"endpoint: median tumor weight (est.), dose: 12.5 mg/kg/injection, schedule: Q07DX003 (ip), vehicle: suspension in saline, higher = larger tumour",169 % of control
same,T/C,[2],79 % of control and 91 % of control
same,T/C,"endpoint: median tumor weight (est.), dose: 25.0 mg/kg/injection, schedule: Q07DX003 (ip), vehicle: suspension in saline, higher = larger tumour",161 % of control
same,T/C,[3],40 % of control and 60 % of control
same,T/C,"endpoint: median tumor weight (est.), dose: 50.0 mg/kg/injection, schedule: Q07DX003 (ip), vehicle: suspension in saline, higher = larger tumour",95 % of control
same,T/C,"endpoint: median tumor weight (est.), dose: 100.0 mg/kg/injection, schedule: Q07DX003 (ip), vehicle: suspension in saline, higher = larger tumour",104 % of control
